Our source for the EC50, inhibition in vivo and minimal effective dose values is patent US20100267775A1, “OXADIAZOLIDINEDIONE COMPOUND” (priority 2007, published 2010).

The target of one test is T1, human GPR40 (Homo sapiens, UniProt O14842, R211H).
T1 construct: expressed in transfected cells; host or cells: CHO dhfr- cells stably transfected with plasmid pEF-BOS-dhfr-GPR40
As to the kind of experiment: Measurement of GPR40 agonistic activity (intracellular calcium, FLIPR, CHO cell line expressing human GPR40). The format is cell-based. The following applies: change in fluorescence intensity one minute after measurement. The source says:
Test Method 1: Measurement of GPR40 Agonistic Activity i) Cloning of Human GPR40
In accordance with procedures as described below, the full-length sequence of GPR40 was obtained by a polymerase chain reaction (PCR) to set human genomic DNA (Clontech) as a template.
Oligonucleotide which consists of a base sequence represented by SEQ ID NO. 1 was used as a forward primer, and oligonucleotide which consists of a base sequence represented by SEQ ID NO. 2 was used as a reverse primer. To each 5′ terminus of the forward primer and the reverse primer described above, a base sequence including the XbaI recognition site is attached. In the PCR, using Taq DNA polymerase (Ex Taq DNA polymerase; TAKARA BIO INC.), a cycle consisting of 94° C. (15 sec)/55° C. (30 sec)/72° C. (1 min) was repeated 30 times in the presence of 5% DMSO. As a result, the DNA fragment of about 0.9 kbp was amplified. This DNA fragment was digested with XbaI, followed by inserting into the XbaI site of plasmid pEF-BOS-dhfr (Nucleic Acids Research, 18, 5322, 1990) to obtain plasmid pEF-BOS-dhfr-GPR40.
The base sequence of GPR40 gene in plasmid pEF-BOS-dhfr-GPR40 was decided by a dideoxy terminator method using a DNA sequencer (ABI377 DNA Sequencer; Applied Biosystems). The base sequence of GPR40 gene was the same with the base sequence represented by SEQ ID NO. 3. The base sequence represented by SEQ ID NO. […] 4 […]
ii) Preparation of GPR40 Stable Expression Cell
A CHO dhfr cell (CHO cell deleting a dihydrofolate reductase (dhfr) gene) was used as a cell in which GPR 40 protein was expressed. In addition, the plasmid pEF-BOS-dhfr-GPR40 obtained in the above i) was used as an expressing plasmid to express GPR40 protein. To a 6 well plate (Asahi Techno Glass Corp.), the CHO dhfr cells were seeded to become 80 to 90% confluent in an aMEM medium having 10% fetal calf serum (FCS), and cultivated overnight. Then, 2 μg of plasmid pEF-BOS-dhfr-GPR40 per well was transferred generetically thereto using a transfection reagent (Lipofectamine 2000; Invitrogen Corporation). After cultivating for 24 hours subsequent to the gene transfer, the cell were diluted and reseeded. On this occasion, the αMEM medium having 10% FCS was changed for an αMEM medium having 10% FCS and no nucleic acid. After 20 days cultivation, formed cell colonies were collected respectively and cultivated, thereby obtaining CHO cells stably expressing GPR40. Among these, cells high-reactive to an oleic acid and a linoleic acid which were intrinsic ligands were selected. […]
iii) Measurement of GPR40 Agonistic Activity
The GPR40 agonistic activity was measured with fluctuation of the intracellular calcium concentration as an index by FLIPR (registered trademark, Molecular Devices Corporation). Hereinafter, test methods will be described.
A CHO cell line expressing human GPR40 was seeded with 6×10^3 per well to a 384-well black plate (Becton, Dickinson and Company), and cultivated in a CO2 incubator overnight. For a luminescent pigment, a Calcium-3 assay kit (Molecular Devices Corporation) was used, and dissolved in 10 ml of a HBSS-HEPES buffer (PH7.4, 1×HBSS, 20 mM HEPES, Invitrogen Corporation) for a bottle. 35.68 mg of probenecid (Sigma) was dissolved in 250 μl of 1M NaOH, and then 250 μl of a HBSS-HEPES buffer was added to blend. 16 ml of a HBSS-HEPES buffer, 640 μl of the luminescent pigment and 32 μl of probenecid were added to blend for a solution of the luminescent pigment per plate. The medium of the plate was removed, 40 μl of the solution of the luminescent pigment per well was dispensed, followed by incubating at room temperature for 2 hours. A compound to be inspected was dissolved in DMSO, and diluted with a HBSS-HEPES buffer. A reaction was initiated by 10 μl of dispensation, the fluctuation of the intracellular calcium concentration was measured by FLIPR. An EC50 value of the compound to be inspected was calculated from the dose-response curve of change in fluorescence intensity one minute after measurement.

For the next test, the system named is normal mice. As to the kind of experiment: Single oral glucose tolerance test on normal mice. The format is in vivo. The note with it: Mus musculus; for inhibition in vivo at 10 mg/kg: 0.5 h, read-out: Reduction rate of blood glucose level (%); for minimal effective dose: read-out: MED. The procedure: Test Method 3: Single Oral Glucose Tolerance Test on Normal Mice
The anti-hyperglycemic action after glycemic load of the compound to be inspected was examined using normal mice. Hereinafter, the test method will be described.
Male ICR mice which was preparedly reared for one week (6-week-old) was fasted overnight, and used as an animal to be inspected. A compound to be inspected was 0.5% methylcellulose suspension, and the suspension was orally administered 30 minutes before the glucose (2 g/kg) load. With regard to some compounds to be inspected, prior blood drawing was performed (0 min value), and blood glucose levels were measured at 5, 15, 30, 60 and 120 minutes later glucose load when the compound to be inspected was orally administered. A control group was given 0.5% methylcellulose. The evaluation was carried out in the following manner. (Evaluation 1) The reduction rate of blood glucose levels after glucose loading (%) with respect to the control group was calculated at a point of glucose load which is 30 minutes after the oral administration of 10 mg/kg of the compound to be inspected. […] Ex represents example compound numbers.
(Evaluation 2) The reduction rate of blood glucose levels after glucose loading (%) with respect to the control group was calculated at a point of glucose load which is 30 minutes after the oral administration of 10, 3, 1, 0.3 or 0.1 mg/kg of the compound to be inspected. […] Ex represents example compound numbers. In addition, MED describing “below” in Table 3 means that a test was not carried out due to less than dose described.
The area under the blood concentration-time curve (AUC) of blood glucose levels for 0 to 120 minute(s) was calculated from the blood glucose levels before the blood drawing, and the blood glucose levels at 5, 15, 30, 60, and 120 minutes after the glucose load when 30, 10, 3, 1 or 0.3 mg/kg of the compound to be inspected was orally administered.

pEC50: −log10 of the molar value.

T1 sequence (O14842 whole entry R211H): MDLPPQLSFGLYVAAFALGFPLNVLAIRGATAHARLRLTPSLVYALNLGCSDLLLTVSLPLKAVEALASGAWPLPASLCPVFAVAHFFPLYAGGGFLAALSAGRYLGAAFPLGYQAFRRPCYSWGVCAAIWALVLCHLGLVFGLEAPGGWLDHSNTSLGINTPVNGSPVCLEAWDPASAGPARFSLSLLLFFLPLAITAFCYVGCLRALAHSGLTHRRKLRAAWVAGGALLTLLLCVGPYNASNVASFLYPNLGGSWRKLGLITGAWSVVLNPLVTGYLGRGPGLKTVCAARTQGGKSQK

With `Cc1cc(OC[C@@H](O)CO)cc(C)c1-c1cccc(COc2ccc(Cn3oc(=O)[n-]c3=O)cc2)c1C.[Na+]` [Example 7], the pEC50 at human GPR40 was 6.39. Moreover, in the test with normal mice, the inhibition in vivo at 10 mg/kg is 30% and the minimal effective dose was 10 mg/kg.
Taken in the same sequence, the figures for `Cc1cc(OCCCNC(=O)C2CC2)cc(C)c1-c1cccc(COc2ccc(Cn3oc(=O)[n-]c3=O)cc2)c1C.[Na+]` [Example 21] were 6.22, 26% and 3 mg/kg.
`Cc1cc(OC[C@H](O)CO)cc(C)c1-c1cccc(COc2ccc(Cn3oc(=O)[n-]c3=O)cc2)c1C.[Na+]` [Example 26]: the pEC50 on human GPR40 was 6.39. In the test with normal mice, the inhibition in vivo at 10 mg/kg amounted to 27% and the minimal effective dose is 10 mg/kg.
The matching figures for `Cc1c(COc2ccc(Cn3oc(=O)[n-]c3=O)cc2)cccc1-c1cccc(OCCC(C)(C)O)c1C.[Na+]` [Example 27]: 6.64, 42% and 1 mg/kg.
`Cc1cc(-c2cccc(COc3ccc(Cn4oc(=O)[n-]c4=O)cc3)c2C)c(C)cc1OCCC(C)(C)O.[Na+]` [Example 31]: the pEC50 at human GPR40 was 7.16. Besides, in the test on normal mice, the inhibition in vivo at 10 mg/kg worked out at 50% and the minimal effective dose is 1 mg/kg.
The matching figures for `Cc1c(COc2ccc(Cn3oc(=O)[n-]c3=O)cc2)cccc1-c1ccc(OCCC(C)(C)O)c(C)c1C.[Na+]` [Example 32]: 7.17, 47% and 1 mg/kg.
For the compound `Cc1cc(OCC[C@@H](C)O)cc(C)c1-c1cccc(COc2ccc(Cn3oc(=O)[n-]c3=O)cn2)c1C.[Na+]` [Example 44], at human GPR40, the pEC50 is 6.72. Also, in the test on normal mice, the inhibition in vivo at 10 mg/kg turned out to be 34% and the minimal effective dose is less than 0.3 mg/kg.
The matching figures for `Cc1cc(OCC[C@H](C)O)cc(C)c1-c1cccc(COc2ccc(Cn3oc(=O)[n-]c3=O)cn2)c1C.[Na+]` [Example 45]: 6.55, 35% and 1 mg/kg.
The matching figures for `COC[C@@H](O)COc1cc(C)c(-c2cccc(COc3ccc(Cn4oc(=O)[n-]c4=O)cc3)c2C)c(C)c1.[Na+]` [Example 56]: 6.09, 29% and 3 mg/kg.
The matching figures for `Cc1cc(OCCC(C)(C)O)nc(C)c1-c1cccc(COc2ccc(Cn3oc(=O)[n-]c3=O)cc2)c1C.[Na+]` [Example 60]: 6.80, 45% and less than 3 mg/kg.
For `Cc1cc(-c2cccc(COc3ccc(Cn4oc(=O)[n-]c4=O)cc3)c2C)c(C)cc1OCCO.[Na+]` [Example 63], the pEC50 on human GPR40 was 6.42. Further, in the test with normal mice, the inhibition in vivo at 10 mg/kg is 22% and the minimal effective dose is less than 1 mg/kg.
The matching figures for `Cc1cc(OC[C@@H](O)CO)cc(C)c1-c1cccc(CNc2ccc(Cn3oc(=O)[n-]c3=O)cc2)c1C.[Na+]` [Example 68]: 7.66, 23% and 3 mg/kg.
Take `Cc1cc(OC[C@H](O)CO)cc(C)c1-c1cccc(CNc2ccc(Cn3oc(=O)[n-]c3=O)cc2)c1C.[Na+]` [Example 69]: the pEC50 on human GPR40 is 7.16. Also, in the test with normal mice, the inhibition in vivo at 10 mg/kg stood at 34% and the minimal effective dose is 1 mg/kg.
Taken in the same sequence, the figures for `Cc1cc(OCCO)cc(C)c1-c1cccc(CNc2ccc(Cn3oc(=O)[n-]c3=O)cc2)c1C.[Na+]` [Example 70] were 7.15, 31% and 10 mg/kg.
Taken in the same sequence, the figures for `CO[C@@H](CO)COc1cc(C)c(-c2cccc(COc3ccc(Cn4oc(=O)[n-]c4=O)cc3)c2C)c(C)c1.[Na+]` [Example 74] were 6.49, 23% and 3 mg/kg.
The matching figures for `Cc1cc(OCCO)cc(C)c1-c1cccc(CNc2ccc(Cn3oc(=O)[n-]c3=O)cn2)c1C.[Na+]` [Example 80]: 6.60, 26% and 10 mg/kg.
As for `Cc1cc(OCC[C@@H](C)O)nc(C)c1-c1cccc(CNc2ccc(Cn3oc(=O)[n-]c3=O)cc2)c1C.[Na+]` [Example 81], the pEC50 on human GPR40 is 6.80. Further, in the test on normal mice, the inhibition in vivo at 10 mg/kg is 33% and the minimal effective dose was less than 3 mg/kg.
Taken in the same sequence, the figures for `Cc1cc(OCC[C@@H](C)O)nc(C)c1-c1cccc(COc2ccc(Cn3oc(=O)[n-]c3=O)cc2)c1C.[Na+]` [Example 84] were 6.55, 35% and less than 3 mg/kg.
In the case of `Cc1cc(OCCO)c(F)cc1-c1cccc(CNc2ccc(Cn3oc(=O)[n-]c3=O)cc2)c1C.[Na+]` [Example 85], at human GPR40, the pEC50 was 6.38. In the test on normal mice, the inhibition in vivo at 10 mg/kg was found to be 24% and the minimal effective dose is 3 mg/kg.
As to `Cc1cc(-c2cccc(CNc3ccc(Cn4oc(=O)[n-]c4=O)cc3)c2C)c(C)nc1OCCO.[Na+]` [Example 89], the pEC50 at human GPR40 is 6.96. In the test on normal mice, the inhibition in vivo at 10 mg/kg turned out to be 25% and the minimal effective dose stood at 3 mg/kg.
Consider `Cc1cc(OCCO)c(F)cc1-c1cccc(COc2ccc(Cn3oc(=O)[n-]c3=O)cc2)c1C.[Na+]` [Example 94], for which the pEC50 at human GPR40 is 6.19. Moreover, in the test on normal mice, the inhibition in vivo at 10 mg/kg worked out at 39% and the minimal effective dose turned out to be 3 mg/kg.
The matching figures for `Cc1cc(-c2cccc(CNc3ccc(Cn4oc(=O)[n-]c4=O)cc3)c2C)c(C)cc1OC[C@@H](O)CO.[Na+]` [Example 96]: 6.72, 23% and 10 mg/kg.
The matching figures for `Cc1cc(-c2cccc(CNc3ccc(Cn4oc(=O)[n-]c4=O)cc3)c2C)c(C)cc1OC[C@H](O)CO.[Na+]` [Example 97]: 6.72, 29% and 10 mg/kg.
As to `Cc1c(CNc2ccc(Cn3oc(=O)[nH]c3=O)cc2)cccc1-c1cccc(OCCO)c1C` [Example 107], the pEC50 at human GPR40 is 7.03.
